Measurements published in US20150087613A1, “Inhibition of Opioid Antinociceptive Tolerance and Withdrawal in Nociceptive Pain Therapy” (Saint Louis University, priority 2013, published 2015).
Read-outs that look alike come from different tables or passages of the source.

Experiments:
[1] = molecular target: T1, A1AR (Homo sapiens, UniProt P30542); test: Radioligand binding, membranes of CHO cells stably expressing hA1AR; settings: for inhibition at 10 µM: read-out: % inhibition A1
T1 construct: expressed in transfected cells
T1 sequence (P30542 1-326): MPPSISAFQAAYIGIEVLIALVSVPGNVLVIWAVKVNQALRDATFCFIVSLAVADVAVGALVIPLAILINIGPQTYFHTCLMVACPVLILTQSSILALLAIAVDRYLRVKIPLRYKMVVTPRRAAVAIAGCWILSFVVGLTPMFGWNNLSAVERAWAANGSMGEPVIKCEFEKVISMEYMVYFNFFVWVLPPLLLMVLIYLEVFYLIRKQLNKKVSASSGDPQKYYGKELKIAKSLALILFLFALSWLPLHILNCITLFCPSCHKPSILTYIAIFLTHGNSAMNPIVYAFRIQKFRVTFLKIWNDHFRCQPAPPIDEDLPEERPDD

[2] = molecular target: T2, A2AAR (Homo sapiens, UniProt P29274); test: Radioligand binding, membranes of HEK293 cells stably expressing hA2AAR; settings: read-out: % inhibition A2A
T2 construct: expressed in transfected cells
T2 sequence (P29274 whole entry): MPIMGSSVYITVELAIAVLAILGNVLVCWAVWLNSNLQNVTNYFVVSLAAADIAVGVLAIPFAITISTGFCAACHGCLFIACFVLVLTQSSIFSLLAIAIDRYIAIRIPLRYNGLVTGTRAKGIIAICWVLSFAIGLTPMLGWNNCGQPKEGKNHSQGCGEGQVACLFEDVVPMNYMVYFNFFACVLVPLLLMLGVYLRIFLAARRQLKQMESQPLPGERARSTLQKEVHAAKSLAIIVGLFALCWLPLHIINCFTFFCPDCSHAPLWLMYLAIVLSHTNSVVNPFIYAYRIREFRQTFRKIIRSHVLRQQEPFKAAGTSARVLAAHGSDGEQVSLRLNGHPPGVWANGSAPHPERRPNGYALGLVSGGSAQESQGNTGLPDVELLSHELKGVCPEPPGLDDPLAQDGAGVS

[3] = molecular target: T3, A3AR (Homo sapiens, UniProt P0DMS8); test: Radioligand binding, membranes of CHO cells stably expressing hA3AR; settings: species h; agonist radioligand 42; n 3-4; read-out: affinity (KV nM) A3
T3 construct: expressed in transfected cells
T3 sequence (P0DMS8 1-318): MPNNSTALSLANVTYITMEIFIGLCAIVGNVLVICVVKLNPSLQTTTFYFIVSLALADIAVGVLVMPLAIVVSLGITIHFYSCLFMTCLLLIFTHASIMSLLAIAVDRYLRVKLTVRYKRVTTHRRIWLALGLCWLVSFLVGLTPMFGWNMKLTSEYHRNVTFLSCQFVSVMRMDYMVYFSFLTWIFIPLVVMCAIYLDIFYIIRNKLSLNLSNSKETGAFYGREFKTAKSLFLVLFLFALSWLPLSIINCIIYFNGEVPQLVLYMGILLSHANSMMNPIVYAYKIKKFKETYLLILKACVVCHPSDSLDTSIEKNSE

[4] = molecular target: T4, A1AR (Mus musculus, UniProt Q60612); test: Radioligand binding, membranes of HEK293 cells stably expressing mA1AR; settings: for inhibition at 10 µM: read-out: % inhibition A1; for Ki: species m, n 3-4, read-out: affinity (KV nM) A1
T4 construct: expressed in transfected cells
T4 sequence (Q60612 1-326): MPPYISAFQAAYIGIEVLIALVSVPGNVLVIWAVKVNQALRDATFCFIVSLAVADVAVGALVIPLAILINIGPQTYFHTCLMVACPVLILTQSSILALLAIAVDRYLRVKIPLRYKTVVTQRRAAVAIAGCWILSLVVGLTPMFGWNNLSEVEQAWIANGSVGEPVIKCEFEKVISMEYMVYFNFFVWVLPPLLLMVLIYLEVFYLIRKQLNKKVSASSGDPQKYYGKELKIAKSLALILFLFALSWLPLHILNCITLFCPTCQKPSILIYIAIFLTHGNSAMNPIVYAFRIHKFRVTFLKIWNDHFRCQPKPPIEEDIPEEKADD

[5] = molecular target: T5, A2AAR (Mus musculus, UniProt Q60613); test: Radioligand binding, membranes of HEK293 cells stably expressing mA2AAR; settings: read-out: % inhibition A2A
T5 construct: expressed in transfected cells
T5 sequence (Q60613 whole entry): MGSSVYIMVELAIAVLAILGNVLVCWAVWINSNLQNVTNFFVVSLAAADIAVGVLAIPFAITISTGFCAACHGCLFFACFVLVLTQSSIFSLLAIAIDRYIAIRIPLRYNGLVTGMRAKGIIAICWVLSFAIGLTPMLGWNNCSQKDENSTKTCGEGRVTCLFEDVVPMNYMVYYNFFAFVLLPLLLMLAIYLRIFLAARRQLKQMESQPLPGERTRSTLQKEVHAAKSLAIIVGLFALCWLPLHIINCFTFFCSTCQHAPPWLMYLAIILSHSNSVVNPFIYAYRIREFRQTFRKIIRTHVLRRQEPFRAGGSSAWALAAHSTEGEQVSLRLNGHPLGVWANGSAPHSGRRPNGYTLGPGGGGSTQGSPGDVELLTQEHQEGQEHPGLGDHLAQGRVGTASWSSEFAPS

[6] = molecular target: T6, A3AR (Mus musculus, UniProt Q61618); test: Radioligand binding, membranes of HEK293 cells stably expressing mA3AR; settings: species m; n 3-4; read-out: affinity (KV nM) A3
T6 construct: expressed in transfected cells
T6 sequence (Q61618 1-319): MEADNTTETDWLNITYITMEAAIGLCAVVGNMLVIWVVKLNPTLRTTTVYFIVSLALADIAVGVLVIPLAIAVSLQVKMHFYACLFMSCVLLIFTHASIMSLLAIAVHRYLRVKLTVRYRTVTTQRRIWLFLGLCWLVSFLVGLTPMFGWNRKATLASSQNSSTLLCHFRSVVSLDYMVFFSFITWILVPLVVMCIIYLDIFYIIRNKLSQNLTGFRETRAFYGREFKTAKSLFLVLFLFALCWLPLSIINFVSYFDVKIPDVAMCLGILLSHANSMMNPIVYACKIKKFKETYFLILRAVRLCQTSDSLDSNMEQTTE

[7] = molecular target: T7, hA3AR (Homo sapiens, UniProt P0DMS8); test: cAMP assay, inhibition of forskolin-stimulated cAMP in hA3AR-transfected CHO cells; format: cell-based; settings: for Emax at 10 µM: CHO, read-out: % efficacy, A3
T7 construct: expressed in transfected cells
T7 sequence (P0DMS8 1-318): T3 sequence (P0DMS8 1-318)

[8] = molecular target: T8, mA3AR (Mus musculus, UniProt Q61618); test: cAMP assay, inhibition of forskolin-stimulated cAMP in mA3AR-transfected HEK cells; format: cell-based; settings: HEK293; read-out: % efficacy, A3
T8 construct: expressed in transfected cells
T8 sequence (Q61618 1-319): T6 sequence (Q61618 1-319)

[9] = molecular target: T1, A1AR; settings: species h; inhibition of binding at 10 μM; tested in ref 26; cited from earlier work
[10] = molecular target: T2, A2AAR; settings: species h, tested in ref 26, cited from earlier work; for % inhibition A2A: inhibition of binding at 10 μM; for Ki: agonist radioligand 41, read-out: affinity (KV nM) A2A
[11] = molecular target: T3, A3AR; settings: species h; agonist radioligand 42; tested in ref 26; read-out: affinity (KV nM) A3; cited from earlier work
[12] = test system: Male Sprague Dawley rats; test: Rat morphine antinociceptive tolerance study (osmotic minipump, tail flick test); format: in vivo
Excerpt: Minipumps were filled according to manufacturer's specifications. The use of the osmotic pump ensures a continuous subcutaneously delivery of morphine avoiding intermittent periods of withdrawal. […] The integrity of the pump delivery system was reexamined at the end of each experiment when the spinal cords are harvested.
(§1) Test substances or vehicle were given on day 0 through 6 after completion of the behavioral tests.

[13] = test system: Male Sprague Dawley rats; test: Acute antinociceptive interaction with acute morphine (tail flick); format: in vivo, rat
Excerpt: as §1

[14] = test system: Male Balb/c mice; test: Naloxone-precipitated withdrawal in morphine dependent mice; format: in vivo, mouse; settings: IB-MECA 0.1 mg/kg with three day morphine regimen
Procedure: Male Balb/c mice (19-26 g) were purchased from University of Adelaide Laboratory Animal Services (Waite Campus, Adelaidem South Australia) and housed 6 per individually ventilated cage (IVC) and maintained in controlled environment (12 h light/dark cycle) with food and water available ad libitum.
A group of control mice (n=7 per strain) received an equal number of saline injections over 3 days.
EtOH was maintained at 0.02% final drug preparation. Vehicle was 0.02% EtOH in normal saline.
Immediately after the naloxone injection, animals were placed into individual Plexiglas observation cylinders (25 h×11 w cm) (Nalgene, Scoresby, VIC, Australia). Withdrawal jumping response symptoms were recorded and the frequency of jumps for each mouse was summed over 30 min. Other characteristic opioid withdrawal behaviors were also recorded such as front paw shakes and hunched/prayer postures. All testing was conducted blind to group assignment.

[15] = Solubility in EtOH on preparing the dosing solution; settings: 5 mg dissolved in 5 ml EtOH

| SMILES | inhibition at 10 µM [4] [%] | inhibition at 10 µM [5] [%] | Ki [6] [nM] | Emax at 10 µM [7] [%] | % inhibition A1 [9] | % inhibition A2A [10] | further results |
| --- | --- | --- | --- | --- | --- | --- | --- |
| CNC(=O)[C@@]12C[C@@H]1[C@@H](n1cnc3c(NCCc4ccccc4)nc(C#Cc4ccccc4)nc31)[C@H](O)[C@@H]2O [Compound 17] | 25 | 1 | 8.75 ± 2.12 | 105 ± 9.8 |  |  | inhibition at 10 µM [1]: 11%; inhibition at 10 µM [2]: 32%; Ki [3]: 1.23 ± 0.57 nM; Emax [8]: 115 ± 14.6% |
| O=S(=O)(O)c1ccc(CCNc2nc(C#Cc3ccccc3)nc3c2ncn3[C@H]2[C@H](O)[C@H](O)[C@@H]3C[C@@H]32)cc1 [Compound 16] | 18 | 1 | 3920 ± 1190 | 7.2 |  |  | inhibition at 10 µM [1]: 10%; inhibition at 10 µM [2]: 15%; Ki [3]: 30.2 ± 4.3 nM |
| CNc1nc(C#Cc2ccccc2)nc2c1ncn2[C@H]1[C@H](O)[C@H](O)[C@@H]2C[C@@H]21 [Compound 8] |  | 8 | 1530 ± 240 | 12.6 ± 4 | (18% ± 1%) | (18% ± 3%) | Ki [4]: 3800 ± 780 nM |
| CNC(=O)[C@@]12C[C@@H]1[C@@H](n1cnc3c(NCc4cccc(Cl)c4)nc(C#Cc4ccccc4)nc31)[C@H](O)[C@@H]2O [Compound 5] | 50 | 2 | 1.23 ± 0.14 |  | (20% ± 3%) |  | % efficacy, A3 ([7]; species h, percentage of maximal effect of 5′-N-ethylcarboxamidoadenosine 43, each at 10 μM, mean ± SEM): 101 ± 5.9% |
| OC1C(O)C(n2cnc3c(NCc4cccc(Cl)c4)nc(C#Cc4ccccc4)nc32)C2CC12 (stereo not shown) [Compound 11] |  |  |  | 13.8 ± 5.1 |  |  | Ki [10]: 680 ± 170 nM |
| CNC(=O)[C@@]12C[C@@H]1[C@@H](n1cnc3c(NCc4cccc(Cl)c4)nc(C#Cc4ccc(S(=O)(=O)O)cc4)nc31)[C@H](O)[C@@H]2O [Compound 6] |  | 14 | 9.68 ± 0.15 | 96.8 ± 5.7 |  |  | Ki ([1]; species h, agonist radioligand 40, n 3-4, read-out: affinity (KV nM) A1): 383 ± 75 nM; inhibition at 10 µM [2]: 23%; Ki [3]: 11.1 ± 1.6 nM; Ki [4]: 35.1 ± 5.5 nM; Emax [8]: 95.7 ± 19.1% |
| OC1C(O)C(n2cnc3c(NCC(c4ccccc4)c4ccccc4)nc(C#Cc4ccccc4Cl)nc32)C2CC12 (stereo not shown) [Compound 15] |  |  |  | 2.6 ± 1.3 | (26% ± 4%) | (22% ± 2%) | Ki [11]: 140 ± 30 nM |
| CN1CC[C@]23c4c5ccc(O)c4O[C@H]2[C@@H](O)C=C[C@H]3[C@H]1C5 [morphine] |  |  |  |  |  |  | analgesia at 2 hr following minipump implant ([12]; morphine 75 μg/μl/h s.c. by osmotic minipump): approximately 100 % analgesia; development of antinociceptive tolerance on chronic morphine infusion ([12]; s.c. infusion over 7 days (Veh-Mor, n=2) vs saline infusion, P<0.001, day 3 and 6): led to the development of antinociceptive tolerance; antinociception after acute morphine alone ([13]; morphine 3 mg/kg i.p., at 30 min): 40±2 % antinociception |
| OC1C(O)C(n2cnc3c(NCc4cccc(Cl)c4)nc(C#Cc4cccc(Cl)c4)nc32)C2CC12 (stereo not shown) [Compound 12] |  |  |  |  |  |  | Ki [10]: 1800 ± 310 nM |
| CCNc1nc(C#Cc2ccccc2)nc2c1ncn2[C@H]1[C@H](O)[C@H](O)[C@@H]2C[C@@H]21 [Compound 9] | 49 | 49 | 1480 ± 170 | 0.8 ± 5.2 | (36% ± 4%) | (42% ± 4%) |  |
| CNC(=O)[C@H]1O[C@@H](n2cnc3c(NCc4cccc(I)c4)ncnc32)[C@H](O)[C@@H]1O [IB-MECA, N^6-(3-iodobenzyl)-adenosine-5′-N-methyluronamide] |  |  |  |  |  |  | development of morphine-induced antinociceptive tolerance ([12]; IB-MECA i.p. daily during 7 day s.c. morphine infusion, tail flick 30 min after acute morphine, day 3 and 6, n=2): blocked the development of morphine-induced antinociceptive tolerance; effect on baseline tail flick latency ([12]; given alone daily over 6 days to rats that received saline infusion): had no effect on baseline tail flick latency; potentiation of antinociceptive responses to acute morphine ([13]; IB-MECA 0.3 mg/kg i.p. 15 min before morphine 3 mg/kg i.p.): did not potentiate the antinociceptive responses to acute morphine; antinociception after acute morphine with IB-MECA pretreatment ([13]; IB-MECA 0.3 mg/kg i.p. 15 min before morphine 3 mg/kg i.p., at 30 min): 35+5 % antinociception; less naloxone-precipitated jumping vs morphine dependent mice receiving vehicle ([14]; 95% CI 1 to 17): 9 jumps/30 min; less episodes of hunched/prayer posture vs morphine dependent mice receiving vehicle ([14]; 95% CI 3 to 7, 30 minute observation): 5 episodes; less bouts of front paw shakes vs morphine dependent mice receiving vehicle ([14]; 95% CI 5 to 15): 10 bouts of front paw shakes/30 min; solubility in EtOH [15]: soluble |
| CNC(=O)[C@@]12C[C@@H]1[C@@H](n1cnc3c(NCc4cccc(Cl)c4)nc(C#Cc4cccc(S(=O)(=O)O)c4)nc31)[C@H](O)[C@@H]2O [Compound 7] | 15 | 1 | 11.3 ± 1.9 | 98.2 ± 6.7 |  |  | inhibition at 10 µM [1]: 16%; inhibition at 10 µM [2]: 7%; Ki [3]: 1.9 ± 0.03 nM; Emax [8]: 89.3 ± 7.1% |
| O[C@@H]1[C@H](O)[C@@H]2C[C@@H]2[C@H]1n1cnc2c(NCCc3ccccc3)nc(C#Cc3ccccc3)nc21 [Compound 14] |  |  |  | 4.1 ± 1.2 | (30% ± 8%) | (22% ± 5%) |  |
| O[C@@H]1[C@H](O)[C@@H]2C[C@@H]2[C@H]1n1cnc2c(NCc3cccc(Cl)c3)nc(C#Cc3ccc(-c4ccccc4)cc3)nc21 [Compound 13] |  | 0 | 255 ± 77 | 3.5 ± 3.2 | (48% ± 4%) | (12% ± 7%) | Ki [4]: 1110 ± 220 nM |
| CCNc1nc(C#Cc2ccccc2Cl)nc2c1ncn2C1C(O)C(O)C2CC21 (stereo not shown) [Compound 10] |  |  |  | 7 ± 5.2 | (25% ± 11%) | (17% ± 6%) | Ki [11]: 5.8 ± 2.08 nM |
